Measured values: patent publication US12448388B2, “PRMT5 inhibitors and uses thereof” (Gilead Sciences, Inc., priority 2023, dated 2025)
pEC50: −log10 of the molar value.

Columns and labels:
[1] = test system: HCT116 MTAP-deleted cell lines; experiment: Cell viability assay (CellTiter-Glo, 7 days), HCT116 MTAP-deleted; type: cell-based; conditions: Homo sapiens, HCT-116; cell viability, HCT116 MTAP-deleted; class symbols; read-out: CC50
Method in brief: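 Each PRMT5 inhibitor was tested as a dose response alongside tool compounds on the same plate. Incubation ran 7 days at 37 °C under 5% CO2, after which CellTiter-Glo luminescence was recorded and CC50 calculated.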

[2] = test system: Symmetric Di-methyl Arginine (SDMA) signal (PRMT5 inhibition) in HCT116 MTAP-deleted cells; experiment: Symmetric di-methyl arginine image-based high content screen assay (SDMA assay), HCT116 MTAP-deleted; type: cell-based; conditions: for EC50 selectivity: HCT116 WT versus HCT116 MTAP-deleted; for pEC50: Homo sapiens, HCT-116, HCT116 MTAP-deleted, class symbols
Method in brief: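 Read-out is imaging of per-cell mean SDMA immunofluorescence (Alexa 488), with cells segmented by DAPI. Cells, MTAP-deleted or wild-type HCT116, were exposed to compound for 3 days at 37 °C before fixation. EC50 derived by 4-parameter non-linear logistic regression.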

| SMILES | EC50 selectivity [2] | pEC50 [2] | CC50 [1] |
| --- | --- | --- | --- |
| CN(C(=O)c1cc2c(cc1F)nc(N)c1cncn12)C1CCc2nc(C(F)(F)F)ccc21 (stereo not drawn) [Ff-13, 4-amino-7-fluoro-N-methyl-N-(2-(trifluoromethyl)-6,7-dihydro-5H-cyclopenta[b]pyridin-5-yl)imidazo[1,5-a]quinoxaline-8-carboxamide] | 176 | ≥ 9.00 | < 100 nM |
| CN(C(=O)c1cc2c(cc1F)nc(N)c1cncn12)[C@@H]1COc2nc(C(F)(F)F)ccc21 [Ff-22, (S)-4-amino-7-fluoro-N-methyl-N-(6-(trifluoromethyl)-2,3-dihydrofuro[2,3-b]pyridin-3-yl)imidazo[1,5-a]quinoxaline-8-carboxamide] | 587 | 8.30 to 9.00 | < 100 nM |
| Nc1nc2cc(F)c(C(=O)N(Cc3ccc(-c4cnn(C(F)(F)F)c4)cc3F)C34CC(C3)C4)cc2n2cncc12 [Ff-23, 4-amino-N-(bicyclo[1.1.1]pentan-1-yl)-7-fluoro-N-(2-fluoro-4-(1-(trifluoromethyl)-1H-pyrazol-4-yl)benzyl)imidazo[1,5-a]quinoxaline-8-carboxamide] | 48 | 8.30 to 9.00 | < 100 nM |
| CN(Cc1ccc(-c2cnn(C(F)(F)F)c2)cc1F)C(=O)c1cc2c(cc1F)nc(N)c1cncn12 [Ff-24, 4-amino-7-fluoro-N-(2-fluoro-4-(1-(trifluoromethyl)-1H-pyrazol-4-yl)benzyl)-N-methylimidazo[1,5-a]quinoxaline-8-carboxamide] | 1985 | 8.30 to 9.00 | 100 to 1000 nM |
| CCN(Cc1ccc(C(F)(F)F)cc1F)C(=O)c1ccc2nc(N)c3cncn3c2c1 [Ff-25, 4-amino-N-ethyl-N-[[2-fluoro-4-(trifluoromethyl)phenyl]methyl]imidazo[1,5-a]quinoxaline-8-carboxamide] | 312 | 8.30 to 9.00 | < 100 nM |
| CCN(Cc1ccc(C(F)(F)F)cc1F)C(=O)c1cc2c(cc1F)nc(N)c1cncn12 [Ff-26, 4-amino-N-ethyl-7-fluoro-N-[[2-fluoro-4-(trifluoromethyl)phenyl]methyl]imidazo[1,5-a]quinoxaline-8-carboxamide] | 210 | ≥ 9.00 | < 100 nM |
| Nc1nc2cc(F)c(C(=O)N(Cc3ccc(C(F)(F)F)cc3F)C(CO)CO)cc2n2cncc12 [Ff-27, 4-amino-7-fluoro-N-[[2-fluoro-4-(trifluoromethyl)phenyl]methyl]-N-[2-hydroxy-1-(hydroxymethyl)ethyl]imidazo[1,5-a]quinoxaline-8-carboxamide] | 51 | < 8.30 | > 1000 nM |
| Nc1nc2cc(F)c(C(=O)N3CCC4CC3c3ccc(C(F)(F)F)cc34)cc2n2cncc12 (stereo not drawn) [Ff-29, (4-amino-7-fluoroimidazo[1,5-a]quinoxalin-8-yl)(7-(trifluoromethyl)-1,3,4,5-tetrahydro-2H-1,5-methanobenzo[c]azepin-2-yl)methanone] | 308 | 8.30 to 9.00 | 100 to 1000 nM |
| CN(Cc1ccc(Cl)cc1C#N)C(=O)c1cc2c(cc1F)nc(N)c1cncn12 [Ff-32, 4-amino-N-(4-chloro-2-cyanobenzyl)-7-fluoro-N-methylimidazo[1,5-a]quinoxaline-8-carboxamide] | 346 | 8.30 to 9.00 | 100 to 1000 nM |
| Cc1ncn2c(N)nc3cc(F)c(C(=O)N(Cc4ccc(C(F)(F)F)cn4)[C@H](C)c4ncccn4)cc3c12 [Ff-54, (R)-5-amino-8-fluoro-1-methyl-N-(1-(pyrimidin-2-yl)ethyl)-N-((5-(trifluoromethyl)pyridin-2-yl)methyl)imidazo[1,5-c]quinazoline-9-carboxamide] | 95 | 8.30 to 9.00 | < 100 nM |
| CN(C(=O)c1cc2c(cc1F)nc(N)c1cncn12)[C@@H]1CC2(CC2)c2cc(C(F)(F)F)ccc21 [Ff-58, (R)-4-amino-7-fluoro-N-methyl-N-(6′-(trifluoromethyl)-2′,3′-dihydrospiro[cyclopropane-1,1′-inden]-3′-yl)imidazo[1,5-a]quinoxaline-8-carboxamide] | 166 | 8.30 to 9.00 | < 100 nM |
| Nc1nc2cc(F)c(C(=O)N3CC4CC(C3)c3ccccc34)cc2n2cncc12 [Ff-62, (4-amino-7-fluoroimidazo[1,5-a]quinoxalin-8-yl)(1,2,4,5-tetrahydro-3H-1,5-methanobenzo[d]azepin-3-yl)methanone] | 178 | < 8.30 | > 1000 nM |
| C[C@H]1CN(C(=O)c2cc3c(cc2Cl)nc(N)c2cncn23)[C@@H](c2ccc(C(F)(F)F)cn2)CO1 [Ff-138, (4-amino-7-chloroimidazo[1,5-a]quinoxalin-8-yl)((2S,5S)-2-methyl-5-(5-(trifluoromethyl)pyridin-2-yl)morpholino)methanone] | 20 | ≥ 9.00 | < 100 nM |
| C[C@H]1CN(C(=O)c2cc3c(cc2F)nc(N)c2cncn23)[C@H]2c3cc(F)c(Br)cc3C[C@H]2O1 [Ff-165, (4-amino-7-fluoroimidazo[1,5-a]quinoxalin-8-yl)((2S,4aS,9aR)-7-bromo-6-fluoro-2-methyl-2,3,9,9a-tetrahydroindeno[2,1-b][1,4]oxazin-4(4aH)-yl)methanone] | 43 | ≥ 9.00 | < 100 nM |
| Nc1nc2cc(F)c(C(=O)N3CCO[C@@H]4Cc5cc(C(F)F)ccc5[C@@H]43)cc2n2cncc12 [Ff-167, (4-amino-7-fluoroimidazo[1,5-a]quinoxalin-8-yl)((4aS,9aR)-7-(difluoromethyl)-2,3,9,9a-tetrahydroindeno[2,1-b][1,4]oxazin-4(4aH)-yl)methanone] | 44 | 8.30 to 9.00 | < 100 nM |
| C[C@H]1CN(C(=O)c2cc3c(cc2F)nc(N)c2cncn23)[C@H]2c3cc(F)c(C4CC4)cc3C[C@H]2O1 [Ff-201, (4-amino-7-fluoroimidazo[1,5-a]quinoxalin-8-yl)((2S,4aS,9aR)-7-cyclopropyl-6-fluoro-2-methyl-2,3,9,9a-tetrahydroindeno[2,1-b][1,4]oxazin-4(4aH)-yl)methanone] | 58 | 8.30 to 9.00 | < 100 nM |

Continued, in another order:

| EC50 selectivity [2] | pEC50 [2] | SMILES | CC50 [1] |
| --- | --- | --- | --- |
| 241 | ≥ 9.00 | CN(C(=O)c1cc2c(cc1F)nc(N)c1cncn12)[C@@H]1COCc2cc(Br)ccc21 [Ff-14, (S)-4-amino-N-(7-bromoisochroman-4-yl)-7-fluoro-N-methylimidazo[1,5-a]quinoxaline-8-carboxamide] | < 100 nM |
| 253 | 8.30 to 9.00 | Cc1ncc2c(N)nc3ccc(C(=O)N(C)[C@@H]4COc5cc(C#CC6CCCO6)ccc54)cc3n12 (stereo partly drawn) [Ff-17, 4-amino-N,1-dimethyl-N-((3S)-6-((tetrahydrofuran-2-yl)ethynyl)-2,3-dihydrobenzofuran-3-yl)imidazo[1,5-a]quinoxaline-8-carboxamide] | 100 to 1000 nM |
| 447 | < 8.30 | COC(C)(C)C#Cc1ccc2c(c1)OC[C@H]2N(C)C(=O)c1ccc2nc(N)c3cnc(C)n3c2c1 [Ff-18, (S)-4-amino-N-(6-(3-methoxy-3-methylbut-1-yn-1-yl)-2,3-dihydrobenzofuran-3-yl)-N,1-dimethylimidazo[1,5-a]quinoxaline-8-carboxamide] | 100 to 1000 nM |
| 129 | < 8.30 | Cc1ncc2c(N)nc3ccc(C(=O)N(C)[C@@H]4COc5cc(C#CC6(O)CC6)ccc54)cc3n12 [Ff-19, (S)-4-amino-N-(6-((1-hydroxycyclopropyl)ethynyl)-2,3-dihydrobenzofuran-3-yl)-N,1-dimethylimidazo[1,5-a]quinoxaline-8-carboxamide] | 100 to 1000 nM |
| 382 | 8.30 to 9.00 | Cc1ncc2c(N)nc3ccc(C(=O)N(C)[C@@H]4COc5cc(C#CC6(C)COC6)ccc54)cc3n12 [Ff-20, (S)-4-amino-N,1-dimethyl-N-(6-((3-methyloxetan-3-yl)ethynyl)-2,3-dihydrobenzofuran-3-yl)imidazo[1,5-a]quinoxaline-8-carboxamide] | < 100 nM |
| 874 | 8.30 to 9.00 | Cc1ncc2c(N)nc3ccc(C(=O)N(C)[C@@H]4COc5nc(C(F)(F)F)ccc54)cc3n12 [Ff-21, (S)-4-amino-N,1-dimethyl-N-(6-(trifluoromethyl)-2,3-dihydrofuro[2,3-b]pyridin-3-yl)imidazo[1,5-a]quinoxaline-8-carboxamide] | 100 to 1000 nM |
| 65 | 8.30 to 9.00 | Cc1ncc2c(N)nc3cc(F)c(C(=O)N(C)[C@@H]4COc5cc(C(F)(F)F)ccc54)cc3n12 [Ff-59, (S)-4-amino-7-fluoro-N,1-dimethyl-N-(6-(trifluoromethyl)-2,3-dihydrobenzofuran-3-yl)imidazo[1,5-a]quinoxaline-8-carboxamide] | < 100 nM |
| 371 | < 8.30 | Cc1ncc2c(N)nc3ccc(C(=O)N4CCC5(CC4)CC(=O)c4ccccc4O5)cc3n12 [Ff-60, 1′-(4-amino-1-methylimidazo[1,5-a]quinoxaline-8-carbonyl)spiro[chromane-2,4′-piperidin]-4-one] | 100 to 1000 nM |
| 157 | 8.30 to 9.00 | CN(C(=O)c1cc2c(cc1F)nc(N)c1cncn12)[C@@H]1COc2cc(N3CCOCC3)ccc21 [Ff-144, (S)-4-amino-7-fluoro-N-methyl-N-(6-morpholino-2,3-dihydrobenzofuran-3-yl)imidazo[1,5-a]quinoxaline-8-carboxamide] | < 100 nM |
